For the experiment, the system named is Mus musculus. Nature of the experiment: Suppression of lung injury in mouse model of influenza A virus H1N1 infection-induced lung injury assessed as decrease in lung resistance at 30 ug/ml dosed via drinking water. The class given is functional, organism-based.

These results are taken from ChEMBL document CHEMBL4419167, “Compositions and methods for treating respiratory injury or disease” (2018).

Activity calls are given as the source filed them. No cut-off for these calls is given here.

As to `c1ccc(-c2ccc(CNCCNCc3ccc(-c4ccccn4)cc3)cc2)nc1`, the outcome was Active.
